Experimental data: PubChem BioAssay (NCI)
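Five concentrations, 48 hours, 96-well plates. The concentration for 50% growth inhibition is given as GI50. TGI marks complete inhibition of growth.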

Each molecule was assayed on SF-295 CNS (assay: NCI-60 cell line screen, 48 h).

Point of comparison: C/C(=N\NC(=S)N1CCCCC1)c1nc2ncccc2[nH]1, TGI 88.7 µM. Against it:
- CCOc1cc2c(OCc3ccccc3)cc3c4cc(OC)c(OC)cc4c[n+](C)c3c2cc1OC — not separable, > 86.3 µM

What follows are molecules tested on NCI-H226 lung (assay: NCI-60 cell line screen, 48 h).

Point of comparison: COc1ccc(C2COc3cc(OC(C)=O)c(OC(C)=O)cc3C2)cc1 (centres undefined), TGI 52.9 µM. Against it:
- c1nc(OCC2CCCCC2)c2[nH]cnc2n1 — higher, > 100 µM
- Oc1cn(-c2ccc(Cl)cc2)nc1-c1nnc(-c2ccccc2)o1 — 1.7-fold lower, 30.7 µM
- COc1ccc(N2C(=O)/C(=C(\C)c3cc4ccccc4oc3=O)N=C2c2cc([N+](=O)[O-])ccc2Cl)cc1 — higher, > 100 µM
- O=C(O)CC(CC(=O)O)C(=O)O — higher, > 100 µM
- CC(=O)N(C)c1ccc(Nc2cc(C)[nH]c3ccc4ncnc4c23)cc1 — 2.7-fold lower, 19.5 µM
- FC(F)(F)c1ccc(N=C/C=C(/Nc2ccc(C(F)(F)F)cc2)c2ccc(Cl)cc2)cc1 — 1.6-fold lower, 32.3 µM
- CC(C)(C)[Si](OC1CC(n2cnc3c(N)ncnc32)OC1CO)(c1ccccc1)c1ccccc1 (centres undefined) — 2-fold lower, 27.1 µM
- NS(=O)(=O)c1ccc(N=Nc2nc3[nH]c(=O)[nH]c(=O)c3[nH]2)cc1 — higher, > 100 µM
- CC1=CC(C)C/C=C/C2C3OC3(C)C(C)C3C(Cc4c[nH]c5ccccc45)NC(=O)C23C(=O)C=CC(=O)C1O (centres undefined) — 1.7-fold lower, 32 µM
- O=C(O)c1ccc(Nc2c3ccccc3nc3ccccc23)cc1 — higher, > 100 µM
- Cc1cc(C)n(C(=C(C(Cl)=C(Cl)Cl)[N+](=O)[O-])n2nc(C)cc2C)n1 — 2-fold lower, 26 µM
- CCOc1cc2c(OCc3ccccc3)cc3c4cc(OC)c(OC)cc4c[n+](C)c3c2cc1OC — 5.4-fold lower, 9.71 µM
- C/C(=N\NC(=S)N1CCCCC1)c1nc2ncccc2[nH]1 — 2-fold lower, 26.7 µM

Each molecule was assayed on CCRF-CEM leukemia (assay: NCI-60 cell line screen, 48 h).

Point of comparison: CCOc1cc2c(OCc3ccccc3)cc3c4cc(OC)c(OC)cc4c[n+](C)c3c2cc1OC, TGI 23 µM. Against it:
- c1nc(OCC2CCCCC2)c2[nH]cnc2n1 — higher, > 100 µM
- Oc1cn(-c2ccc(Cl)cc2)nc1-c1nnc(-c2ccccc2)o1 — higher, > 100 µM
- COc1ccc(N2C(=O)/C(=C(\C)c3cc4ccccc4oc3=O)N=C2c2cc([N+](=O)[O-])ccc2Cl)cc1 — higher, > 100 µM
- O=C(O)CC(CC(=O)O)C(=O)O — higher, > 100 µM
- CC(=O)N(C)c1ccc(Nc2cc(C)[nH]c3ccc4ncnc4c23)cc1 — 1.5-fold higher, 34.9 µM
- FC(F)(F)c1ccc(N=C/C=C(/Nc2ccc(C(F)(F)F)cc2)c2ccc(Cl)cc2)cc1 — higher, > 100 µM
- CCCCN(CCCC)CC(O)c1cc(-c2ccc(C(F)(F)F)cc2)nc(-c2ccc(C(F)(F)F)cc2)c1 (centres undefined) — higher, > 100 µM
- CC(C)(C)[Si](OC1CC(n2cnc3c(N)ncnc32)OC1CO)(c1ccccc1)c1ccccc1 (centres undefined) — higher, > 100 µM
- CC1=CC(C)C/C=C/C2C3OC3(C)C(C)C3C(Cc4c[nH]c5ccccc45)NC(=O)C23C(=O)C=CC(=O)C1O (centres undefined) — 7.6-fold lower, 3.02 µM
- O=C(O)c1ccc(Nc2c3ccccc3nc3ccccc23)cc1 — higher, > 100 µM
- Cc1cc(C)n(C(=C(C(Cl)=C(Cl)Cl)[N+](=O)[O-])n2nc(C)cc2C)n1 — 4-fold lower, 5.8 µM
- COc1ccc(C2COc3cc(OC(C)=O)c(OC(C)=O)cc3C2)cc1 (centres undefined) — within 1.5-fold, 16.4 µM
- C/C(=N\NC(=S)N1CCCCC1)c1nc2ncccc2[nH]1 — within 1.5-fold, 17.2 µM

Work on Oc1cn(-c2ccc(Cl)cc2)nc1-c1nnc(-c2ccccc2)o1 yielded a GI50 of 2460 nM.

What follows are molecules tested on SW-620 colon (assay: NCI-60 cell line screen, 48 h).

Point of comparison: Cc1cc(C)n(C(=C(C(Cl)=C(Cl)Cl)[N+](=O)[O-])n2nc(C)cc2C)n1, TGI 18.2 µM. Against it:
- c1nc(OCC2CCCCC2)c2[nH]cnc2n1 — higher, > 100 µM
- Oc1cn(-c2ccc(Cl)cc2)nc1-c1nnc(-c2ccccc2)o1 — 2-fold higher, 36.4 µM
- COc1ccc(N2C(=O)/C(=C(\C)c3cc4ccccc4oc3=O)N=C2c2cc([N+](=O)[O-])ccc2Cl)cc1 — higher, > 100 µM
- O=C(O)CC(CC(=O)O)C(=O)O — higher, > 100 µM
- CC(=O)N(C)c1ccc(Nc2cc(C)[nH]c3ccc4ncnc4c23)cc1 — within 1.5-fold, 22.1 µM
- FC(F)(F)c1ccc(N=C/C=C(/Nc2ccc(C(F)(F)F)cc2)c2ccc(Cl)cc2)cc1 — 1.8-fold higher, 32.8 µM
- CCCCN(CCCC)CC(O)c1cc(-c2ccc(C(F)(F)F)cc2)nc(-c2ccc(C(F)(F)F)cc2)c1 (centres undefined) — higher, > 100 µM
- CC(C)(C)[Si](OC1CC(n2cnc3c(N)ncnc32)OC1CO)(c1ccccc1)c1ccccc1 (centres undefined) — 1.9-fold higher, 34.1 µM
- NS(=O)(=O)c1ccc(N=Nc2nc3[nH]c(=O)[nH]c(=O)c3[nH]2)cc1 — higher, > 100 µM
- CC1=CC(C)C/C=C/C2C3OC3(C)C(C)C3C(Cc4c[nH]c5ccccc45)NC(=O)C23C(=O)C=CC(=O)C1O (centres undefined) — within 1.5-fold, 25.9 µM
- O=C(O)c1ccc(Nc2c3ccccc3nc3ccccc23)cc1 — higher, > 100 µM
- COc1ccc(C2COc3cc(OC(C)=O)c(OC(C)=O)cc3C2)cc1 (centres undefined) — 2.6-fold higher, 46.5 µM
- C/C(=N\NC(=S)N1CCCCC1)c1nc2ncccc2[nH]1 — higher, > 100 µM

Each molecule was assayed on LOX IMVI melanoma (assay: NCI-60 cell line screen, 48 h).

Point of comparison: CC(=O)N(C)c1ccc(Nc2cc(C)[nH]c3ccc4ncnc4c23)cc1, TGI 15.9 µM. Against it:
- c1nc(OCC2CCCCC2)c2[nH]cnc2n1 — higher, > 100 µM
- Oc1cn(-c2ccc(Cl)cc2)nc1-c1nnc(-c2ccccc2)o1 — within 1.5-fold, 20.5 µM
- COc1ccc(N2C(=O)/C(=C(\C)c3cc4ccccc4oc3=O)N=C2c2cc([N+](=O)[O-])ccc2Cl)cc1 — higher, > 100 µM
- O=C(O)CC(CC(=O)O)C(=O)O — higher, > 100 µM
- FC(F)(F)c1ccc(N=C/C=C(/Nc2ccc(C(F)(F)F)cc2)c2ccc(Cl)cc2)cc1 — within 1.5-fold, 19.3 µM
- CCCCN(CCCC)CC(O)c1cc(-c2ccc(C(F)(F)F)cc2)nc(-c2ccc(C(F)(F)F)cc2)c1 (centres undefined) — higher, > 100 µM
- CC(C)(C)[Si](OC1CC(n2cnc3c(N)ncnc32)OC1CO)(c1ccccc1)c1ccccc1 (centres undefined) — 2-fold higher, 31.7 µM
- NS(=O)(=O)c1ccc(N=Nc2nc3[nH]c(=O)[nH]c(=O)c3[nH]2)cc1 — higher, > 100 µM
- CC1=CC(C)C/C=C/C2C3OC3(C)C(C)C3C(Cc4c[nH]c5ccccc45)NC(=O)C23C(=O)C=CC(=O)C1O (centres undefined) — within 1.5-fold, 17.9 µM
- O=C(O)c1ccc(Nc2c3ccccc3nc3ccccc23)cc1 — higher, > 100 µM
- Cc1cc(C)n(C(=C(C(Cl)=C(Cl)Cl)[N+](=O)[O-])n2nc(C)cc2C)n1 — 3.4-fold lower, 4.69 µM
- COc1ccc(C2COc3cc(OC(C)=O)c(OC(C)=O)cc3C2)cc1 (centres undefined) — 2.3-fold higher, 37.2 µM
- C/C(=N\NC(=S)N1CCCCC1)c1nc2ncccc2[nH]1 — higher, > 100 µM

Molecule Oc1cn(-c2ccc(Cl)cc2)nc1-c1nnc(-c2ccccc2)o1 has a GI50 of 1630 nM.

These molecules were tested on RXF 393 renal (assay: NCI-60 cell line screen, 48 h).

Point of comparison: CC(=O)N(C)c1ccc(Nc2cc(C)[nH]c3ccc4ncnc4c23)cc1, TGI 22.9 µM. Against it:
- c1nc(OCC2CCCCC2)c2[nH]cnc2n1 — higher, > 100 µM
- Oc1cn(-c2ccc(Cl)cc2)nc1-c1nnc(-c2ccccc2)o1 — 2.4-fold lower, 9.55 µM
- O=C(O)CC(CC(=O)O)C(=O)O — higher, > 100 µM
